This is an account of results in ChEMBL document CHEMBL4145634, “Discovery of Janus Kinase 2 (JAK2) and Histone Deacetylase (HDAC) Dual Inhibitors as a Novel Strategy for the Combinational Treatment of Leukemia and Invasive Fungal Infections” (J Med Chem, 2018).

The target in one data set is Histone deacetylase 2 (Homo sapiens, UniProt Q92769). The data set is described as follows: Inhibition of recombinant HDAC2 (unknown origin) using (Ac-Leu-Gly-Lys(Ac)-AMC as substrate preincubated for 5 mins followed by substrate addition and measured after 30 mins by fluorescence assay.
Another data set deals with HL-60. The data set is described as follows: Antiproliferative activity against human HL60 cells after 48 hrs by CCK-8 assay. In kind it is functional, cell-based. The following applies: HL-60, 48 h. (Formazan colour is commonly taken as a measure of viable cells.)
For another data set, the system named is K562. The experiment in a line: Antiproliferative activity against human K562 cells after 48 hrs by CCK-8 assay. Conditions: K562, 48 h. Format: functional, cell-based.
The target of data set [1] is T1, Tyrosine-protein kinase JAK3 (Homo sapiens, UniProt P52333).
T1 sequence (P52333 whole entry): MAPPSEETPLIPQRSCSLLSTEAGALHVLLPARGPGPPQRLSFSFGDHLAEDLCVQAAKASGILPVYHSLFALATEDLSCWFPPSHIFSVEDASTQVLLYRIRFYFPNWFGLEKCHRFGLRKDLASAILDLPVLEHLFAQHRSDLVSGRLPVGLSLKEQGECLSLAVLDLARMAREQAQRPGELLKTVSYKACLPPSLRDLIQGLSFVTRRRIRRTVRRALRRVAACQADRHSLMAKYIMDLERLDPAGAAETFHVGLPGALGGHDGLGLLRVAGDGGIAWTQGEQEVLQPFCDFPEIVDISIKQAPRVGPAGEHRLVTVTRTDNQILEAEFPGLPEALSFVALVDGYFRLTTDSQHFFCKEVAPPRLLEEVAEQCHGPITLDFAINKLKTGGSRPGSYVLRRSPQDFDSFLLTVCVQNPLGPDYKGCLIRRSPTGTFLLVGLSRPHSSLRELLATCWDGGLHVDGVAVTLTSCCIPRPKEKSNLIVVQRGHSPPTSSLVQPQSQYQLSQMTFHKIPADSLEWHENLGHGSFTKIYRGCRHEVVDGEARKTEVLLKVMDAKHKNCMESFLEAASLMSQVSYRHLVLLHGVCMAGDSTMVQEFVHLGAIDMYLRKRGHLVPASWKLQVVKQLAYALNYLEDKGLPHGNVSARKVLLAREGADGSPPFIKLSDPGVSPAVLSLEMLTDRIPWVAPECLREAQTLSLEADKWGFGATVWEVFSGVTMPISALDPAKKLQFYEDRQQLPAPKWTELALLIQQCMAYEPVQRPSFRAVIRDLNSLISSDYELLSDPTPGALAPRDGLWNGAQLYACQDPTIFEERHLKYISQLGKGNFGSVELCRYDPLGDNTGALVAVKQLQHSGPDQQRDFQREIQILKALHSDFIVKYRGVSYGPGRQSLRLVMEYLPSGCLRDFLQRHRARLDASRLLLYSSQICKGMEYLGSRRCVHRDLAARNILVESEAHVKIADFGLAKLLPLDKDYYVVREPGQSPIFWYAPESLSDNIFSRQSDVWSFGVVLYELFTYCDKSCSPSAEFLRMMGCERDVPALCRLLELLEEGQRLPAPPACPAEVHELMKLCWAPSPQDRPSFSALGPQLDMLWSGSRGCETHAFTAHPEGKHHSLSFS
The experiment in a line: Inhibition of JAK3 (unknown origin) using FAM-labeled peptide as substrate preincubated for 10 mins followed by substrate addition and measured after 25 mins in presence of ATP.

In data set [2] the target is T2, Protein deacetylase HDAC6 (Homo sapiens, UniProt Q9UBN7).
T2 sequence (Q9UBN7 whole entry): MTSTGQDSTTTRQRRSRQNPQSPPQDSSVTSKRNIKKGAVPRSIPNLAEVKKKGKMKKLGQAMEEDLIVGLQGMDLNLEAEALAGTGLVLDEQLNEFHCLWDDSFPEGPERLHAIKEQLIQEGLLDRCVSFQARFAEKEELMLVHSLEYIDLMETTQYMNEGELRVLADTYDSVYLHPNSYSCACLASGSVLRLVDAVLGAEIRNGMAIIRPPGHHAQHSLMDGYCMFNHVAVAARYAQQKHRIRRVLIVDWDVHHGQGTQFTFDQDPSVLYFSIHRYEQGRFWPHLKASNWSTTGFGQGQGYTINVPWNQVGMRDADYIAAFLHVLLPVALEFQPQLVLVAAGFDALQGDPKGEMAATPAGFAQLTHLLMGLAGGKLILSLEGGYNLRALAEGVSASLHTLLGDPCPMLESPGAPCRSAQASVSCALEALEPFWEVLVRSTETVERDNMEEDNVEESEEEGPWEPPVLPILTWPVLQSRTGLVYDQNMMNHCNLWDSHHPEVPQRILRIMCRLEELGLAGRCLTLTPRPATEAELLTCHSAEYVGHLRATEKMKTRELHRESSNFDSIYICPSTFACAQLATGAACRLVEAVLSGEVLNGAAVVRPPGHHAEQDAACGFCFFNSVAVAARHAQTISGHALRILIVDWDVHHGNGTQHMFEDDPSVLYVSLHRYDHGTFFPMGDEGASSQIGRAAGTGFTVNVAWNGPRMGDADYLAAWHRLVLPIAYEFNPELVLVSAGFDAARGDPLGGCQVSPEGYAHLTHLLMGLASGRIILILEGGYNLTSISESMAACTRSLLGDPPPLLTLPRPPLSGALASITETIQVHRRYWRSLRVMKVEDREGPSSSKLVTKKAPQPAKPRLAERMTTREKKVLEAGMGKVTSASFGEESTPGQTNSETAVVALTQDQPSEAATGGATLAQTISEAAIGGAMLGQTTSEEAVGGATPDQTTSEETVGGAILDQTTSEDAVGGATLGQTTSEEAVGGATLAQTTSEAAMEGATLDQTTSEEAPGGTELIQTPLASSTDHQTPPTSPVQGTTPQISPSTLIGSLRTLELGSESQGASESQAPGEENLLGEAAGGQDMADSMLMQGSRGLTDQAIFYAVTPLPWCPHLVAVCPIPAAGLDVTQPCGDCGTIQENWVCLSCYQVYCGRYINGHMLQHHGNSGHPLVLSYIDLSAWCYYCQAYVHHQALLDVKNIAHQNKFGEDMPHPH
The data set is described as follows: Inhibition of full length human recombinant HDAC6 expressed in Baculovirus infected Sf9 cells using (Ac-Leu-Gly-Lys(Ac)-AMC as substrate preincubated for 5 mins followed by substrate addition and measured after 30 mins by fluorescence assay.

In data set [3] the test system is Candida albicans. The data set is described as follows: microbe, parasite or virus in culture. Format: functional. Conditions: Candida albicans, 0304103, 48 h.
Description: Antifungal activity against FLC resistant Candida albicans 0304103 after 48 hrs in presence of fluconazol by checkerboard microdilution method
In data set [4] the test system is Candida albicans. The experiment in a line: microbe, parasite or virus in culture. In kind it is functional. Conditions: Candida albicans, 0710922, 48 h.
Description: Antifungal activity against FLC resistant Candida albicans 0710922 after 48 hrs by checkerboard microdilution method
In data set [5] the test system is Candida albicans. The data set is described as follows: Synergistic antifungal activity against FLC resistant Candida albicans 100 assessed as FIC index after 48 hrs by checkerboard microdilution method. Format: functional. In general terms: Broth dilution looks for growth in wells or tubes with falling amounts of substance.
A short description of data set [6]: Half life in ICR mouse liver microsomes at 1 uM measured up to 45 mins in presence of NADPH by LC-MS/MS analysis. Format: ADME, microsome. On the technique in general: Liver microsomes are a subcellular fraction often used to study metabolism.
The nature of data set [7]: Clearance in ICR mouse liver microsomes at 1 uM measured up to 45 mins in presence of NADPH by LC-MS/MS analysis. Format: ADME, microsome. Conditions: 0.75 h.
A further data set deals with Mus musculus. The data set is described as follows: In vivo antifungal activity against FLC resistant Candida albicans 0304103 infected in ICR mouse assessed as mouse survival at 5 mg/kg, ip qd up to 20 days in co-treated with 1 mg/kg, ip qd fluconazol (reference value: 4.5 day). In kind it is functional.

pIC50: −log10 of the molar value. Converted amounts (≈) assume the structure as drawn. Where only a bound is given, the exact number is not on record here.

As a reminder, the pIC50 is −log10 of the IC50, conventionally taken in molar units. A word on the half-life: it is the time needed for the level to fall by half in the phase considered.

Chain of Histone deacetylase 2 (Q92769 whole entry): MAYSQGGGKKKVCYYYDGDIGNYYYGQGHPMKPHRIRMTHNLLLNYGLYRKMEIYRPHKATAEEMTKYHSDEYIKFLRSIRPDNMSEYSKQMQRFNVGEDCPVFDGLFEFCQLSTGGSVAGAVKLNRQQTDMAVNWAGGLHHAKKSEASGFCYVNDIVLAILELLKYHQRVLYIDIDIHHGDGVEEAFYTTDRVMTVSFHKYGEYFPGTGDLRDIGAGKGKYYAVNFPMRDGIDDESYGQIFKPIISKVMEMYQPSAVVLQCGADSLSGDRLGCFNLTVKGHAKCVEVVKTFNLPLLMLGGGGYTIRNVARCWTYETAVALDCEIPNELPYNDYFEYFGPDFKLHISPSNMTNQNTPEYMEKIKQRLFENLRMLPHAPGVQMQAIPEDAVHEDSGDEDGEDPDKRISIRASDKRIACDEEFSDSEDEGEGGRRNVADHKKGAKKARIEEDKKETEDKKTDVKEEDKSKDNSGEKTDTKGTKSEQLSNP

Consider `O=C(NO)c1ccc(-c2ccnc(Nc3ccc(N4CCOCC4)cc3)n2)cc1`, for which the pIC50 is 5.77 on Histone deacetylase 2; 5.21 with HL-60; 5.40 in the data set on K562; 6.29 in data set [1]; 6.38 in [2]. Moreover, the MIC50 was 4 µg/mL (≈ 10.2 µM) against Candida albicans [3] and above 64 µg/mL with Candida albicans [4]. For the same compound, the “fractional inhibitory concentration index (FICI)” value in the data set on Candida albicans [5] turned out to be 0.13. The half-life at 1 µM in [6] came out at 16.5 min. For the same compound, the CLH in data set [7] worked out at 0.0838 mL/min/mg. Further, the MST in the data set on Mus musculus was found to be 11 days.

Turning to `CS(=O)(=O)Nc1ccc(-c2ccnc(Nc3ccc(N4CCC(C(=O)NCCCCCCCC(=O)NO)CC4)cc3)n2)cc1`, the pIC50 on Histone deacetylase 2 is 6.88; in the data set on HL-60 it was below 4.30; with K562, 5.23; in [1], 6.84; in [2], 7.13. Also, the MIC50 was 8 µg/mL (≈ 12.8 µM) in the data set with Candida albicans [3] and above 64 µg/mL against Candida albicans [4]. In the data set with Candida albicans [5], the “fractional inhibitory concentration index (FICI)” value came to 0.13. For the same compound, in data set [6], the half-life at 1 µM amounted to 15.7 min. Further, in data set [7], the CLH is 0.0881 mL/min/mg. Besides, the MST in the data set with Mus musculus came out at 13 days.

Take `CS(=O)(=O)Nc1ccc(-c2ccnc(Nc3ccc(N4CCC(C(=O)Nc5ccc(/C=C/C(=O)NO)cc5)CC4)cc3)n2)cc1`: the pIC50 at Histone deacetylase 2 is 5.13; with HL-60, 5.82; in the data set on K562 it was 5.06; in data set [1], 6.92; in data set [2] it was 7.34. The MIC50 was 4 µg/mL (≈ 6.37 µM) against Candida albicans [3] and above 64 µg/mL in the data set on Candida albicans [4]. For the same compound, the “fractional inhibitory concentration index (FICI)” value in the data set on Candida albicans [5] was determined as 0.07. Also, in data set [6], the half-life at 1 µM was 19.4 min. In [7], the CLH was 0.0716 mL/min/mg. In addition, in the data set on Mus musculus, the MST is 11.5 days.
